Earlier results, collected in patent US10729634B2, “Sex hormone-binding globulin for use as a medicament” (FUNDACIÓ HOSPITAL UNIVERSITARI VALL D'HEBRON—INSTITUT DE …, priority 2013, dated 2020).

Experiments:
[1] = cited from earlier work
[2] = system: HepG2 hepatoblastoma cells; conditions: positive control, 3 μM; cited from earlier work

Structure (SMILES): C[C@H]1CNCCc2ccc(Cl)cc21 [Lorcaserin]
- average weight loss greater than placebo ([1]; over a year): 3.1 kg
- average weight loss greater than placebo, of body mass ([1]; over a year): 3%

Structure (SMILES): CC(C)NCC(O)c1ccc(O)c(O)c1 (stereo not shown) [Isoproterenol]
- lipolysis [2]: induces lipolysis

Structure (SMILES): CCCCCCCCCCC[C@@H](C[C@@H]1OC(=O)[C@H]1CCCCCC)OC(=O)[C@H](CC(C)C)NC=O [orlistat]
- side effects ([1]; in vivo): associated with gastrointestinal side effects
